Measured values from publication PMC4980843 (European journal of medicinal chemistry, 2009).
Like-named read-outs stand apart in the source and are kept apart here.

Legend:
[1] = test system: human HT-29 colon tumor cell line; assay: Tumor cell growth inhibition, Cell Titer Glo assay, 72 h; assay type: cell-based; conditions: HT-29 cells
[2] = target: human PDE3A isozyme (Homo sapiens, UniProt Q14432); assay: IMAP fluorescence polarization phosphodiesterase assay; assay type: biochemical; conditions: for % PDE3 Inhibition at 50 μM, cGMP: cGMP as substrate
Chain of human PDE3A isozyme (Q14432 whole entry): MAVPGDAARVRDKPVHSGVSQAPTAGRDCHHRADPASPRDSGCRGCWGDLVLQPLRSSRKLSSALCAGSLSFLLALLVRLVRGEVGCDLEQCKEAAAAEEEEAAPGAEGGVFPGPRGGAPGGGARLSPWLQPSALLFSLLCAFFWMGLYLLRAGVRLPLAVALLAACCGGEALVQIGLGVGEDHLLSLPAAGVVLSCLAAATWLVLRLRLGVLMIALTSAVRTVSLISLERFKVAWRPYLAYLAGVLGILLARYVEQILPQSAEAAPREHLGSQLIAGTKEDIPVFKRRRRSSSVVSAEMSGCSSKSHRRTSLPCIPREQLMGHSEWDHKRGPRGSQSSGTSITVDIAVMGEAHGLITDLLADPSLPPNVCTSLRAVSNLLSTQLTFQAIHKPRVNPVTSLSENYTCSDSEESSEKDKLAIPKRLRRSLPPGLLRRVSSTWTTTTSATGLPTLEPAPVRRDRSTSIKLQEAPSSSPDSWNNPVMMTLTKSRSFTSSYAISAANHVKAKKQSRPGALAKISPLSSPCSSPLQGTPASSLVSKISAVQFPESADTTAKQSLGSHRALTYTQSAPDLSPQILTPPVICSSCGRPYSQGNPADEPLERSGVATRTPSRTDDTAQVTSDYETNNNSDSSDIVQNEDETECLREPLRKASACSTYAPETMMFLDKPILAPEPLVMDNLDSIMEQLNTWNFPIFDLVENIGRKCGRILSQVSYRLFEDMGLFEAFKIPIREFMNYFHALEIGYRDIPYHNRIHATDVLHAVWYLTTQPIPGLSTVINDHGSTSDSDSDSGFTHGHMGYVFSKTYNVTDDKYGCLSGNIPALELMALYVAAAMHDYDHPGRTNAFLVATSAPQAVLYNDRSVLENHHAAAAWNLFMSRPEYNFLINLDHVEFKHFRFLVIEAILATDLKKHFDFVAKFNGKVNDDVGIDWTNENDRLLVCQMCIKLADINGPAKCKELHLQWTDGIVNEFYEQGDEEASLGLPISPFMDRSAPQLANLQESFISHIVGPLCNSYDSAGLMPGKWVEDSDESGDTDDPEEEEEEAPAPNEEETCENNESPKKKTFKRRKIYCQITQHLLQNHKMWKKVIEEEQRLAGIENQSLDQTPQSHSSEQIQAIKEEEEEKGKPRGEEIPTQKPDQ

Row | Compound | tumor cell growth inhibitory activity (in words) [1] | other results
1 | COc1ccc(-c2cc(-c3ccsc3)[nH]c(=N)c2C#N)cc1 [Compound 28, 2-Imino-4-(4-methoxyphenyl)-6-(thiophen-3-yl)-1,2-dihydropyridine-3-carbonitrile] | displayed tumor cell growth inhibitory activity | –
2 | N#Cc1c(-c2ccccc2O)cc(-c2ccsc2)[nH]c1=O [Compound 19, 4-(2-Hydroxyphenyl)-2-oxo-6-thiophen-3-yl-1,2-dihydropyridine-3-carbonitrile] | displayed tumor cell growth inhibitory activity | –
3 | COc1ccc(OC)c(-c2cc(-c3ccc(Br)cc3)[nH]c(=N)c2C#N)c1 [Compound 9, 6-(4-Bromophenyl)-4-(2,5-dimethoxyphenyl)-2-imino1,2-dihydropyridine3-carbonitrile] | displayed tumor cell growth inhibitory activity | –
4 | CCOc1ccc(-c2cc(-c3ccsc3)[nH]c(=N)c2C#N)cc1 [Compound 26, 4-(4-Ethoxyphenyl)-2-imino-6-(thiophen-3-yl)-1,2-dihydropyridine-3-carbonitrile] | no tumor cell growth inhibitory activity | % PDE3 Inhibition at 50 μM, cGMP ([2]; 50 μM): > 50%; inhibition at 50 µM ([2]; read-out: % PDE3 Inhibition at 50 μM, cAMP, 50 μM, cAMP as substrate): > 50%
5 | COc1ccccc1-c1cc(-c2ccsc2)[nH]c(=N)c1C#N [Compound 29, 2-Imino-4-(2-methoxyphenyl)-6-(thiophen-3-yl)-1,2-dihydropyridine-3-carbonitrile] | displayed tumor cell growth inhibitory activity | inhibition at 50 µM ([2]; read-out: % PDE3 Inhibition at 50 μM, cGMP, 50 μM, cGMP as substrate): -95%
6 | N#Cc1c(-c2cccc(Cl)c2)cc(-c2ccccc2)[nH]c1=O [Compound 15, 4-(3-Chlorophenyl)-2-oxo-6-phenyl-1,2-dihydropyridine-3-carbonitrile] | displayed tumor cell growth inhibitory activity | –
7 | 2-Imino-4-phenyl-6-(thiophen-3-yl)-1,2-dihydropyridine-3-carbonitrile [Compound 25] | – | % PDE3 Inhibition at 50 μM, cAMP ([2]; 50 μM, cAMP as substrate): 21%; % PDE3 Inhibition at 50 μM, cGMP ([2]; 50 μM): 26%
8 | CCOc1ccccc1-c1cc(-c2ccsc2)[nH]c(=N)c1C#N [Compound 27, 4-(2-Ethoxyphenyl)-2-imino-6-(thiophen-3-yl)-1,2-dihydropyridine-3-carbonitrile] | displayed tumor cell growth inhibitory activity | –
9 | CCOc1ccccc1-c1cc(-c2ccsc2)[nH]c(=O)c1C#N [Compound 21, 4-(2-Ethoxyphenyl)-2-oxo-6-thiophen-3-yl-1,2-dihydropyridine-3 carbonitrile] | displayed tumor cell growth inhibitory activity | –
10 | N#Cc1c(-c2ccccc2O)cc(-c2ccc(Br)cc2)[nH]c1=O [Compound 1, 6-(4-Bromophenyl)-4-(2-hydroxyphenyl)-2-oxo-1,2-dihydropyridine-3-carbonitrile] | displayed tumor cell growth inhibitory activity | –
